Experimental data from PMC7377239, “Cardiovascular Effects of Polychlorinated Biphenyls and Their Major Metabolites” (Environmental Health Perspectives, 2020).
Counter-ions that a name gives are not always drawn. Like-named read-outs stand apart in the source and are kept apart here.

Key:
[1] = system: iCell endothelial cells (human iPSC-derived ECs); assay: Tube formation (tubulogenesis) assay in iCell endothelial cells, 18 h; format: cell-based; details: for activity at 0.01 µM / activity at 0.1 µM / activity at 1 µM / activity at 10 µM / activity at 100 µM / minimal effective concentration: Homo sapiens, Endothelial cell, iPSC-EC tube formation, 18 hr; for minimal effective concentration: top concentration 100.00 µM; for endo.mtl.18hr / endo.tlps.18hr / endo.tta.18hr / endo.ttl.18hr: iPSC-EC, 0.00 µM = 100.00
Method in brief: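 Tube formation was measured by calcein AM imaging after overnight compound exposure (37°C, 0.5% DMSO vehicle) of human iPSC-derived ECs, 7,500/well, on reduced-growth-factor Geltrex in starvation medium. Vehicle-normalized data fitted to four-parameter logistic; POD set at one vehicle SD; without response, 100 μM taken as NOAEL.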

[2] = system: HUVECs; assay: High-content imaging cytotoxicity in HUVECs, 24 h; format: cell-based, human; details: HUVECs; for viability at 0.01 µM / activity at 0.01 µM / viability at 0.1 µM / activity at 0.1 µM / viability at 1 µM / activity at 1 µM / viability at 10 µM / activity at 10 µM / viability at 100 µM / activity at 100 µM / minimal effective concentration: Homo sapiens, HUVEC, 24 h; for viability at 0.01 µM / activity at 0.01 µM / viability at 0.1 µM / activity at 0.1 µM / viability at 1 µM / activity at 1 µM / viability at 10 µM / activity at 10 µM / viability at 100 µM / activity at 100 µM / huvec.mito.24hr / huvec.mitoint.24hr / huvec.nma.24hr: 0.00 µM = 100.00; for viability at 0.1 µM / activity at 0.1 µM: 0.10 µM; for minimal effective concentration: top concentration 100.00 µM
Method in brief: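 Confluent HUVEC monolayers, passages 1–5, received test chemicals for 24 h. Cytotoxicity was scored from triple-stain high-content images, with PODs defined by a one-SD deviation from 0.5% DMSO vehicle controls.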

[3] = 24 hr, read-out: huvec.cyto.24hr
[4] = 24 hr, read-out: huvec.mito.24hr
[5] = 24 hr, read-out: huvec.mitoint.24hr
[6] = 24 hr, read-out: huvec.nma.24hr
[7] = 24 hrs, read-out: huvec.tc.24hrs

O=S(=O)(O)Oc1cc(Cl)ccc1-c1ccccc1 [2-yl PCB 3 sulfate]
activity at 0.01 µM ([1]; 0.01 µM, 0.00 µM control = 100.00, read-out: endo.mtl.18hr): 97.5% | activity at 0.01 µM ([1]; 0.01 µM, 0.00 µM control = 100.00, read-out: endo.tlps.18hr): 97.8% | activity at 0.01 µM ([1]; 0.01 µM, 0.00 µM control = 100.00, read-out: endo.tta.18hr): 134% | activity at 0.01 µM ([1]; 0.01 µM, 0.00 µM control = 100.00, read-out: endo.ttl.18hr): 124% | activity at 0.1 µM ([1]; 0.10 µM, 0.00 µM control = 100.00, read-out: endo.mtl.18hr): 93.9% | activity at 0.1 µM ([1]; 0.10 µM, 0.00 µM control = 100.00, read-out: endo.tlps.18hr): 117% | activity at 0.1 µM ([1]; 0.10 µM, 0.00 µM control = 100.00, read-out: endo.tta.18hr): 102% | activity at 0.1 µM ([1]; 0.10 µM, 0.00 µM control = 100.00, read-out: endo.ttl.18hr): 93.2% | activity at 1 µM ([1]; 1.00 µM, 0.00 µM control = 100.00, read-out: endo.mtl.18hr): 91.4% | activity at 1 µM ([1]; 1.00 µM, 0.00 µM control = 100.00, read-out: endo.tlps.18hr): 118% | activity at 1 µM ([1]; 1.00 µM, 0.00 µM control = 100.00, read-out: endo.tta.18hr): 90.6% | activity at 1 µM ([1]; 1.00 µM, 0.00 µM control = 100.00, read-out: endo.ttl.18hr): 83.8% | activity at 10 µM ([1]; 10.00 µM, 0.00 µM control = 100.00, read-out: endo.mtl.18hr): 83.6% | activity at 10 µM ([1]; 10.00 µM, 0.00 µM control = 100.00, read-out: endo.tlps.18hr): 89.9% | activity at 10 µM ([1]; 10.00 µM, 0.00 µM control = 100.00, read-out: endo.tta.18hr): 60.9% | activity at 10 µM ([1]; 10.00 µM, 0.00 µM control = 100.00, read-out: endo.ttl.18hr): 58.8% | activity at 100 µM ([1]; 100.00 µM, 0.00 µM control = 100.00, read-out: endo.mtl.18hr): 106% | activity at 100 µM ([1]; 100.00 µM, 0.00 µM control = 100.00, read-out: endo.tlps.18hr): 86.3% | activity at 100 µM ([1]; 100.00 µM, 0.00 µM control = 100.00, read-out: endo.tta.18hr): 92.2% | activity at 100 µM ([1]; 100.00 µM, 0.00 µM control = 100.00, read-out: endo.ttl.18hr): 89% | minimal effective concentration ([1]; read-out: endo.mtl.18hr POD): 100 µM | minimal effective concentration ([1]; read-out: endo.tlps.18hr POD): 100 µM | minimal effective concentration ([1]; read-out: endo.tta.18hr POD): 100 µM | minimal effective concentration ([1]; read-out: endo.ttl.18hr POD): 100 µM | viability at 0.01 µM [2, 3]: 95% | activity at 0.01 µM [2, 4]: 93.7% | activity at 0.01 µM [2, 5]: 96.9% | activity at 0.01 µM [2, 6]: 100% | viability at 0.1 µM [2, 3]: 105% | activity at 0.1 µM [2, 4]: 105% | activity at 0.1 µM [2, 5]: 103% | activity at 0.1 µM [2, 6]: 95.3% | viability at 1 µM [2, 3]: 95% | activity at 1 µM [2, 4]: 94.6% | activity at 1 µM [2, 5]: 92.6% | activity at 1 µM [2, 6]: 95.4% | viability at 10 µM [2, 3]: 83.5% | activity at 10 µM [2, 4]: 83.3% | activity at 10 µM [2, 5]: 97.9% | activity at 10 µM [2, 6]: 97.9% | viability at 100 µM [2, 3]: 93% | activity at 100 µM [2, 4]: 92.1% | activity at 100 µM [2, 5]: 93.3% | activity at 100 µM [2, 6]: 96% | minimal effective concentration ([2]; 24 hr, read-out: huvec.cyto.24hr POD): 100 µM | minimal effective concentration ([2]; 24 hr, read-out: huvec.mito.24hr POD): 100 µM | minimal effective concentration ([2]; 24 hr, read-out: huvec.mitoint.24hr POD): 100 µM | minimal effective concentration ([2]; 24 hr, read-out: huvec.nma.24hr POD): 100 µM | viability at 0.01 µM [2, 7]: 95% | viability at 0.1 µM [2, 7]: 105% | viability at 1 µM [2, 7]: 95% | viability at 10 µM [2, 7]: 83.5% | viability at 100 µM [2, 7]: 93% | minimal effective concentration ([2]; 24 hrs, read-out: huvec.tc.24hrs POD): 100 µM

Clc1ccc(Cl)c(-c2c(Cl)ccc(Cl)c2Cl)c1Cl [(-)-PCB 136, 2,2′,3,3′,6,6′-hexachlorobiphenyl]
endo.mtl.18hr ([1]; 0.01 µM): 102.71 | endo.tlps.18hr ([1]; 0.01 µM): 139.80 | endo.tta.18hr ([1]; 0.01 µM): 138.00 | endo.ttl.18hr ([1]; 0.01 µM): 138.93 | endo.mtl.18hr ([1]; 0.10 µM): 112.13 | endo.tlps.18hr ([1]; 0.10 µM): 103.80 | endo.tta.18hr ([1]; 0.10 µM): 103.27 | endo.ttl.18hr ([1]; 0.10 µM): 116.27 | endo.mtl.18hr ([1]; 1.00 µM): 102.66 | endo.tlps.18hr ([1]; 1.00 µM): 134.14 | endo.tta.18hr ([1]; 1.00 µM): 146.36 | endo.ttl.18hr ([1]; 1.00 µM): 142.63 | endo.mtl.18hr ([1]; 10.00 µM): 114.95 | endo.tlps.18hr ([1]; 10.00 µM): 133.39 | endo.tta.18hr ([1]; 10.00 µM): 144.91 | endo.ttl.18hr ([1]; 10.00 µM): 148.25 | endo.mtl.18hr ([1]; 100.00 µM): 40.89 | endo.tlps.18hr ([1]; 100.00 µM): 14.11 | endo.tta.18hr ([1]; 100.00 µM): 1.36 | endo.ttl.18hr ([1]; 100.00 µM): 1.73 | huvec.mito.24hr ([2]; 24 hr, concentration 0.01 µM): 77.23 | huvec.mitoint.24hr ([2]; 24 hr, concentration 0.01 µM): 84.43 | huvec.nma.24hr ([2]; 24 hr, concentration 0.01 µM): 98.77 | huvec.mito.24hr ([2]; 24 hr, concentration 0.10 µM): 130.40 | huvec.mitoint.24hr ([2]; 24 hr, concentration 0.10 µM): 73.90 | huvec.nma.24hr ([2]; 24 hr, concentration 0.10 µM): 86.45 | huvec.mito.24hr ([2]; 24 hr, concentration 1.00 µM): 92.50 | huvec.mitoint.24hr ([2]; 24 hr, concentration 1.00 µM): 88.05 | huvec.nma.24hr ([2]; 24 hr, concentration 1.00 µM): 99.68 | huvec.mito.24hr ([2]; 24 hr, concentration 10.00 µM): 30.92 | huvec.mitoint.24hr ([2]; 24 hr, concentration 10.00 µM): 10.83 | huvec.nma.24hr ([2]; 24 hr, concentration 10.00 µM): 50.44 | huvec.mito.24hr ([2]; 24 hr, concentration 100.00 µM): 29.50 | huvec.mitoint.24hr ([2]; 24 hr, concentration 100.00 µM): 15.66 | huvec.nma.24hr ([2]; 24 hr, concentration 100.00 µM): 72.40
